Key:
[1] = Intraduodenal (id) bioavailability screen in minipigs, plasma level of parent Mn complex by HPLC/MS/MS; format: in vivo, Gottingen minipig; details: id 10 mg/kg, vs 1 mg/kg iv parent chloro complex, AUC0→24 h
Protocol: Compounds were screened for oral bioavailability by injecting the formulated prodrugs directly into the duodenum (intraduodenal or id administration) of the minipig test subjects, thus bypassing the acidic environment of the stomach and thereby eliminating potentially misleading oral bioavailability results that could arise from alteration of the test article drug in the acid environment of the stomach.
The studies were conducted at Xenometrics LLC (Stillwell, Kans.) and the id bioavailability was determined using various axial ligand derivative complexes of GC4419, GC4444, GC4403 and GC4401.
Male Gottingen minipigs (4-5 mo old, 9-12 kg weight) were purchased from Marshall BioResources and housed at Xenometrics. […] The distal end was exteriorized with a reusable accessible hub (see surgical details below). During a recovery period of at least 2 weeks the minipigs were handled daily to acclimate them to the test procedures, i.e., id dosing and blood collections. For each experiment, each minipig received a test article drug dissolved or suspended in an excipient vehicle. […] All dosing experiments were conducted in fasted animals. Food was withdrawn from the minipigs 16 hours before dosing. The minipigs had ad libitum access to water. Dosed minipigs were allowed access to food 6 hour after dosing. The test article was administered at a dose of 10 mg/kg parent drug in 0.1 mL/kg vehicle (e.g., 1.5 mL in 15 kg minipig) as a bolus injection (˜1 minute) via the id cannula. The actual amount of total test article drug administered varied with the formula weight of the prodrug. An equal volume of excipient vehicle was used to flush the cannula after the test article was administered. Approximately 6 hours later, corn oil was used to flush the cannula. After approximately 24 hours post-dose, the catheter was flushed with sterile saline solution and capped. At the following time-points 0.25, 0.5, 1, 2, 4, 8, 24 and 48 hour post-injection, 2 mL blood samples were collected by cranial vena cava puncture (4 mL Sodium heparin Vacutainer, 20 g 1.5″ needle) after the skin surface was wiped with ethanol. The minipig was placed in a sling in a recumbent position without anesthesia for the collection of blood samples. The minipigs were never used more than once per 7 days for experimentation. The blood samples were kept on ice until processed for plasma. Blood samples were centrifuged at 1200×g for ten minutes at 4° C. and plasma samples were transferred to 96 well plate tubes, capped and stored at −20° C. until shipment on dry ice to the analytical laboratory used for measuring the concentration of drug in the plasma. The concentration of the parent manganese pentaaza macrocylic ring complex (independent of the composition of the axial ligands) was measured in plasma using a validated HPLC/MS/MS method that is linear between 50 ng/mL and 20,000 ng/mL.
The oils used for preparing the dosing solutions were used as supplied from commercial sources. The Capmul MCM (NF) is a mixture of mono/diglycerides of caprylic/capric acids and was supplied by ABITEC Corporation, Janesville, Wis. The Miglyol 812 N is a mixture of caprylic/capric acid triglycerides and was supplied by Cremer Oleo Division, Eatontown, N.J. Labrafil M 2125 CS (NF) is chemically defined to be linoleoyl polyoxyl-6 glycerides NF and was supplied by Gattefosse, SAINT-PRIEST Cedex, France. Peceol is chemically defined to be the monoglyceride, glyceryl monooleate NF, and was supplied by Gattefosse, SAINT-PRIEST Cedex, France. Maisine 35-1 is chemically defined to be the monoglyceride glyceryl monolinoleate (NF) and was supplied by Gattefosse, SAINT-PRIEST Cedex, France. Labrasol (NF) is chemically defined to be caprylocaproyl polyoxyl-8 glycerides NF and was supplied by Gattefosse, SAINT-PRIEST Cedex, France. Labrafil M 1944 CS is chemically defined to be oleoyl polyoxyl-6 glycerides (NF), and is available from Gattefosse, SAINT-PRIEST Cedex, France. […]

[2] = tested on: rats subjected to an experimental model of colitis; details: ip injection; cited from earlier work
[3] = tested on: hamster model of acute, radiation-induced oral mucositis; details: ip; cited from earlier work
[4] = tested on: lethal total body irradiation of adult mice; details: ip; cited from earlier work
[5] = tested on: rat model of inflammation; details: ip; cited from earlier work
[6] = tested on: rat model of collagen-induced arthritis; details: ip; cited from earlier work
[7] = Solubility in water; format: physicochemical
[8] = tested on: VEGFr inhibitor-induced pulmonary disease; details: ip, rat model; cited from earlier work
[9] = tested on: oral mucositis in head-and-neck cancer patients; details: intravenous (iv) infusion, head-and-neck cancer patients undergoing chemoradiation therapy; cited from earlier work
[10] = base oil Capmul MCM, 10% by weight
[11] = base oil Miglyol 812N, 10% by weight

Q: For `[Cl-].[Cl-].[Mn+2].c1cc2nc(c1)CN[C@@H]1CCCC[C@H]1NCCN[C@@H]1CCCC[C@H]1NC2` [GC4403], which “Mini-Pig BioA” value [1, 10] is on record?
A: 9%

Q: What about the “injury to the colon” value [2] of the same compound?
A: significantly reduce the injury to the colon

Q: And the radiation damage [3]?
A: attenuate the radiation damage

Q: What about the radiation damage [4] of the same compound?
A: attenuate the radiation damage

Q: And the inflammation [5]?
A: inhibit inflammation

Q: And the joint disease [6]?
A: prevent joint disease

Q: Which results are given for `[Cl][Mn][Cl].c1cc2nc(c1)CN[C@H]1CCCC[C@@H]1NCCN[C@H]1CCCC[C@@H]1NC2` [GC4419, reference compound]?
A: Mini-Pig BioA [1, 10]: 9%; Mini-Pig BioA ([1]; base oil Labrafil M2125 CS, 10% by weight): 7%; Mini-Pig BioA ([1]; base oil Maisine 35-1, 10% by weight): 8%; Mini-Pig BioA [1, 11]: 8%; Mini-Pig BioA ([1]; base oil Peceol, 10% by weight): 9%; solubility in water [7]: relatively readily soluble in water; VEGFr inhibitor-induced pulmonary disease [8]: attenuate VEGFr inhibitor-induced pulmonary disease; oral mucositis [9]: reduce oral mucositis

Q: With “Manganese(II)bis-racemic-phenylglycinato[2S,21S-Dimethyl(4aR,13aR,17aR,21aR)-1,2,3,4,4a,5,6,12,13,13a,14,15,16,17,17a,18,19,20,21,21a-Eicosahydro-11,7-nitrilo-7H-dibenzo[b,h][1,4,7,10]tetraazacycloheptadecine-κN5,κN13,κN18,κN21,κN22]- [GC4715]” as the compound, how does the “Mini-Pig BioA” value [1, 10] read?
A: 36%

Q: With “Manganese(II)bis-racemic-phenylglycinato[6R-Methyl(4aR,13aR,17aR,21aR)-1,2,3,4,4a,5,6,12,13,13a,14,15,16,17,17a,18,19,20,21,21a-Eicosahydro-11,7-nitrilo-7H-dibenzo[b,h][1,4,7,10]tetraazacycloheptadecine-κN5,κN13,κN18,κN21,κN22]- [GC4716]” as the compound, how does the “Mini-Pig BioA” value [1, 10] read?
A: 34%

Q: For “Manganese(II)bis-racemic-phenylglycinato[(4aR,13aR,17aR,21aR)-1,2,3,4,4a,5,6,12,13,13a,14,15,16,17,17a,18,19,20,21,21a-Eicosahydro-11,7-nitrilo-7H-dibenzo[b,h][1,4,7,10]tetraazacycloheptadecine-κN5,κN13,κN18,κN21,κN22]- [GC4717]”, which “Mini-Pig BioA” value [1, 10] is on record?
A: 26%

Q: With “Manganese(II)bis-racemic-phenylglycinato[(4aS,13aS,17aS,21aS)-1,2,3,4,4a,5,6,12,13,13a,14,15,16,17,17a,18,19,20,21,21a-Eicosahydro-11,7-nitrilo-7H-dibenzo[b,h][1,4,7,10]tetraazacycloheptadecine-κN5,κN13,κN18,κN21,κN22]- [GC4720]” as the compound, how does the “Mini-Pig BioA” value [1, 10] read?
A: 33%

Q: What about the “Mini-Pig BioA” value [1, 11] of the same compound?
A: 32%
